Measurements as given in BindingDB's records for patent US20250188057 (Merck Sharp & Dohme, 2025).

Target: T1, Ceramide glucosyltransferase (Homo sapiens, UniProt Q16739)
T1 sequence (Q16739 whole entry): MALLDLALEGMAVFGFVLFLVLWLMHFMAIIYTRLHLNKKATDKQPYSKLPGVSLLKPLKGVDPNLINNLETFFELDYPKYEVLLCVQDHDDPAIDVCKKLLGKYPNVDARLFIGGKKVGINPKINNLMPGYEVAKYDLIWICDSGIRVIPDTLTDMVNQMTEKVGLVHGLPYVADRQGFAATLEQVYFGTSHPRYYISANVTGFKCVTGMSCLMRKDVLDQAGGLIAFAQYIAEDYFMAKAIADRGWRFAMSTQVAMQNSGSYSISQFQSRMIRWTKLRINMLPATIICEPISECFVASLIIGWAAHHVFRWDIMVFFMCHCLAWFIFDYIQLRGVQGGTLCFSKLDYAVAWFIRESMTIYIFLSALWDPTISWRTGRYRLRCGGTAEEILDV
Assay: UDP-Glo Glucosylceramide Synthase Biochemical Assay
Protocol: Using Promega's UDP-Glo™ Glycosyltransferase assay kit (Promega Corporation, Madison, WI, USA (Promega)), GCS activity was indirectly measured by detecting the amount of UDP produced. An aliquot of GCS enzyme (1.5 μg crude golgi preparation, total protein) and titrated test compound were aliquoted to each well and incubated for 30 minutes at room temperature. […] An equivalent volume of substrate mixture was then added to each well. Following a 20 h incubation at room temperature to allow for GCS turnover of substrate, an equal volume of UDP detection reagent (Promega) was added to each well and incubated for an additional 75 minutes at room temperature to simultaneously convert the accumulated UDP product into ATP and generate light in a luciferase reaction.

IC50: 3.15 µM
Compound: CN1C(=O)CC(COc2nc(C3CC3)ncc2C#N)C1c1cccc(Cl)c1 (stereo unspecified) [US20250188057, Compound 101]
